Experiments:
[1] = tested on: C-L subunit activity; assay: C-L proteasome activity in RBCs of treated mice; format: in vivo, mouse; settings: FV-162 30 mg/ml as printed in Figure 5e legend
[2] = tested on: CT-L proteasome subunit; assay: CT-L proteasome activity in whole cell lysates of human myeloma cell lines (Suc-Leu-Leu-Val-Tyr-AMC); format: biochemical
Protocol: Cells were harvested by centrifugation at 1200 r.p.m. at room temperature. Cell pellets were washed with PBS and lysed with assay lysis buffer (50 mM HEPES (2-[4-(2-hydroxyethyl) piperazin-1-yl]ethanesulfonic acid)), pH 7.5; 150 mM NaCl; 1% Triton X-100; 2 mM ATP). Cell lysates were incubated on ice for 30 min, mixed by vortex every 5 min, and centrifuged at 12 000 × g for 10 min. Supernatants were transferred to a 96-well plate in triplicate. For each assay, 10 μg of total protein were incubated for 1 h at 37 °C with increasing concentrations (0.001–10 μM) of test compound or vehicle control diluted in assay buffer (50 mM Tris-HCl (tris(hydroxymethyl)aminomethane-HCl), pH 7.5; 150 mM NaCl). After incubation, a specific fluorogenic proteasome substrate was added to each assay reaction (40 μM in a total volume of 100 μl). […] The excitation wavelength was 360 nm and the fluorescence emission of free AMC released during the enzymatic reaction was detected at 460 nm on a SpectraMax M5 fluorescent spectrophotometric plate reader (Molecular Devices, Sunnyvale, CA, USA). AMC release rate was measured at 37 °C in a kinetic mode, recording every 5 min for 30 min.

[3] = Metabolic stability assay with pooled mouse liver microsomes; format: in vitro ADME; settings: 5 μM compound, 15 min, 0.5 mg/ml pooled mouse liver microsomes, LC/MS
Protocol: Pooled liver microsomes isolated from male CD-1 mice were purchased from BD Biosciences (San Jose, CA, USA). Metabolic stability was calculated by measuring the percentage of 5 μM of each test compound remaining after 15 min incubation with 0.5 mg/ml liver microsomes at 37 °C. Compounds were detected by LC/MS using a Xevo quadrupole time-of-flight mass spectrometer and an ACQUITY ultra-performance LC (UPLC) system (Waters Inc., Milford, MA, USA) to determine relative peak areas of each parent compound.

[4] = tested on: CT-L proteasome activity; assay: CT-L proteasome activity in RBCs of treated mice; format: in vivo, mouse; settings: for duration of inhibition of proteasome activity in isolated RBCs: after single oral treatment of mice; for inhibition of CT-L activity in RBCs compared with ONX-0912 (30 mg/kg): up to 24 h postdose
Protocol: Cells were harvested by centrifugation at 1200 r.p.m. at room temperature. Cell pellets were washed with PBS and lysed with assay lysis buffer (50 mM HEPES (2-[4-(2-hydroxyethyl) piperazin-1-yl]ethanesulfonic acid)), pH 7.5; 150 mM NaCl; 1% Triton X-100; 2 mM ATP). Cell lysates were incubated on ice for 30 min, mixed by vortex every 5 min, and centrifuged at 12 000 × g for 10 min. Supernatants were transferred to a 96-well plate in triplicate. For each assay, 10 μg of total protein were incubated for 1 h at 37 °C with increasing concentrations (0.001–10 μM) of test compound or vehicle control diluted in assay buffer (50 mM Tris-HCl (tris(hydroxymethyl)aminomethane-HCl), pH 7.5; 150 mM NaCl). After incubation, a specific fluorogenic proteasome substrate was added to each assay reaction (40 μM in a total volume of 100 μl). N-Succinyl-Leu-Leu-Val-Tyr-7-amino-4-methylcoumarin (Suc-Leu-Leu-Val-Tyr-AMC) was used for measuring CT-L activity, t-butoxycarbonyl- Leu-Arg-Arg-7-amino-4-methylcoumarin (Boc-Leu-Arg-Arg-AMC) for T-L activity, and benzyloxycarbonyl-L-leucyl-L-leucyl-L-glutamyl-7-amino-4-methylcoumarin (Z-Leu-Leu-Glu-AMC) for C-L activity. The excitation wavelength was 360 nm and the fluorescence emission of free AMC released during the enzymatic reaction was detected at 460 nm on a SpectraMax M5 fluorescent spectrophotometric plate reader (Molecular Devices, Sunnyvale, CA, USA). AMC release rate was measured at 37 °C in a kinetic mode, recording every 5 min for 30 min.
Five-to-six-week-old male NOD/SCID mice were administered vehicle (5% DMSO, 20% Cremophor) or proteasome inhibitors either intravenously or by oral gavage (3 mice per group), and 20–50 μl of venous blood were collected from each mouse over 24 h. Blood samples were mixed with heparin (APP Pharmaceuticals; Schaumburg, IL, USA) in 0.5-ml tubes in accordance with the manufacturer's instructions. After centrifugal separation at 3000 × g for 10 min, RBCs in the bottom layer were transferred into a new tube and stored at −70 °C until use. RBCs were lysed with assay lysis buffer and incubated on ice for 30 min, mixing by vortex every 5 min, and centrifuged at 12 000 × g for 10 min. Supernatants were transferred to a 96-well plate and proteasome activity was measured as described in 'Cell lysates' section.

[5] = tested on: T-L subunit activity; assay: T-L proteasome activity in RBCs of treated mice; format: in vivo, mouse; settings: FV-162 30 mg/ml as printed in Figure 5e legend
[6] = tested on: 10 human myeloma cell lines; assay: MTS cell growth and viability assay; format: cell-based; settings: 72 h
Protocol: Human multiple myeloma cell lines 8226, H929, JJN3, KMH11, KMS11, KMS18, LP1, MM.1 S, OPM2, and U266 were grown in Iscove's modified Dulbecco's medium (IMDM). Cell lines were authenticated with short tandem repeat method in September 2011. In addition, cell lines were continually monitored by morphological inspection. Primary mononuclear cells were isolated from peripheral blood or bone marrow samples from multiple myeloma patients at the Princess Margaret Cancer Centre (Toronto, ON, Canada) by Ficoll density gradient centrifugation and cultured in IMDM. All cell culture media were obtained from the Ontario Cancer Institute Tissue Culture Media Facility (Toronto, ON, Canada) and were supplemented with 10% fetal calf serum, 100 μg/ml penicillin, and 100 μg/ml streptomycin (Hyclone, Logan, UT, USA). […]
Cellular viability was primarily assessed by MTS assay according to the manufacturer's instructions (Promega, Madison, WI, USA). […] Cell viability was independently confirmed by reading the optical density at 490 nm and by exclusion of trypan blue stain (Invitrogen, Burlington, ON, Canada). Viability of primary mononuclear cells was determined by Annexin V–fluorescein isothiocyanate and propidium iodide co-staining (Biovision Research Products, Mountain View, CA, USA) using flow cytometry according to the manufacturer's instructions after 48 h of treatment with inhibitors or vehicle control.

[7] = tested on: NOD/SCID mice; assay: Dose tolerance studies / MTD in mice; settings: 30 mg/kg daily by oral gavage, up to 8 days, NOD/SCID mice
Protocol: NOD/SCID mice were administered FV-162 (30 mg/kg daily, 7 days/week) in a 5% DMSO, 20% Cremophor vehicle by oral gavage or ONX-0912 (30 mg/kg daily, 7 days/week) in a 5% DMSO, 20% Cremophor vehicle by oral gavage for a week. Mice were monitored for changes in body weight, behavior, and physical appearance.

[8] = tested on: patients; settings: cited from earlier work

| SMILES | inhibition of C-L subunit activity in murine RBCs [1] | potency in CT-L inhibition relative to ONX-0912 ([2]; in 6 of the 10 cell lines) | IC50 ([2]; total cell lysates, all 10 human myeloma cell lines tested) | percentage of parent compound remaining [3] | duration of inhibition of proteasome activity in isolated RBCs [4] | inhibition of CT-L activity in RBCs compared with ONX-0912 (30 mg/kg) ([4]; single oral dose 30 mg/kg) | inhibition of CT-L activity in RBCs compared with ONX-0912 (30 mg/kg) ([4]; single oral dose 100 mg/kg (half the MTD)) | inhibition of T-L subunit activity in murine RBCs [5] | cell growth and viability (MTS) ([6]; all 10 human myeloma cell lines) | potency in MTS assay relative to ONX-0912 ([6]; in 5 of the 10 cell lines) | toxicity, behavior and body weight on daily dosing [7] | MTD (not reached at cumulative doses up to) ([8]; administered twice daily) | MTD ([8]; once-daily oral, patients with advanced refractory or recurrent solid tumors) |
| --- | --- | --- | --- | --- | --- | --- | --- | --- | --- | --- | --- | --- | --- |
| Cc1ncc(C(=O)N[C@@H](COC(F)F)C(=O)N[C@@H](COC(F)F)C(=O)N[C@@H](Cc2ccccc2)C(=O)[C@@]2(C)CO2)s1 [FV-162] | did not inhibit | over five times more potent than ONX-0912 | < 60 nM | Over 80% | sustained for up to 24 h | less inhibition of the CT-L activity than ONX-0912 | performed similarly to almost the MTD of ONX-0912 | did not inhibit | decreased cell growth and viability | over two times more potent than ONX-0912 | no evidence of toxicity, behavioral change, or loss of body weight | – | – |
| COC[C@H](NC(=O)c1cnc(C)s1)C(=O)N[C@@H](COC)C(=O)N[C@@H](Cc1ccccc1)C(=O)[C@@]1(C)CO1 [ONX-0912, reference compound] | – | – | – | 56% | sustained for up to 24 h | – | – | – | – | – | – | > 190 mg/day | 150 mg/day |

Source: paper PMC4650734, “FV-162 is a novel, orally bioavailable, irreversible proteasome inhibitor with improved pharmacokinetics displaying preclinical efficacy with continuous daily dosing” (Cell Death & Disease, 2015)
